Values after ≈ are worked out from the molar mass of the structure shown.
Columns and labels:
Plasmodium falciparum [1] = experiment: In vitro antimalarial activity against Plasmodium falciparum W-2 Indochina; assay type: functional, organism-based
Plasmodium falciparum [2] = experiment: In vitro antimalarial activity against Plasmodium falciparum D6 Africa; assay type: functional, organism-based

Structure (SMILES) | IC50 (Plasmodium falciparum [1]) | IC50 (Plasmodium falciparum [2])
CO[C@H]1O[C@]2(C)OO[C@]13[C@H](CCOCc1ccccc1)CCC[C@@H]3CC2(C)C | > 500 ng/mL | > 500 ng/mL
CO[C@H]1O[C@]2(C)OO[C@]13[C@H](CCO)CCC[C@@H]3C[C@H]2C | > 500 ng/mL | > 500 ng/mL
CO[C@H]1O[C@]2(C)OO[C@]13[C@H](CCO)CCC[C@@H]3CC2(C)C | > 500 ng/mL | > 500 ng/mL
C[C@@H]1CC[C@H]2[C@@H](C)C(=O)O[C@@H]3O[C@@]4(C)CC[C@@H]1[C@]32OO4 [ARTEMISININ] | 8 ng/mL (≈ 0.0283 µM) | 8 ng/mL (≈ 0.0283 µM)
CO[C@H]1O[C@]2(C)OO[C@]13[C@H](CCO)CCC[C@@H]3C[C@@H]2C | 4.5 ng/mL (≈ 0.0157 µM) | 3.5 ng/mL (≈ 0.0122 µM)
